Laboratory results as given in US10752635B2, “Indazole compounds and uses thereof” (Incyte Corporation, priority 2018, dated 2020).

The compounds below were run against HPK1 (Homo sapiens (Human), UniProt Q92918) (assay: HPK1 Kinase Binding Assay). Conditions: active HPK1 (SignalChem M23-11G), tracer 222, LanthaScreen Eu-Anti GST antibody, one hour at 25° C.
Protocol: A stock solution of 1 mM test compound was prepared in DMSO. The compound plate was prepared by 3-fold and 11-point serial dilutions. 0.1 μL of the compound in DMSO was transferred from the compound plate to the white 384 well polystyrene plates. The assay buffer contained 50 mM HEPES, pH 7.5, 0.01% Tween-20, 5 mM MgCl2, 0.01% BSA, and 5 mM DTT. 5 μL of 4 nM active HPK1 (SignalChem M23-11G) prepared in the buffer was added to the plate. The enzyme concentration given was based on the given stock concentration reported by the vender. […] After one hour incubation at 25° C., the plates were read on a PHERAstar FS plate reader (BMG Labtech). Ki values were determined.

HPK1, sequence (Q92918 1-346 limits assumed): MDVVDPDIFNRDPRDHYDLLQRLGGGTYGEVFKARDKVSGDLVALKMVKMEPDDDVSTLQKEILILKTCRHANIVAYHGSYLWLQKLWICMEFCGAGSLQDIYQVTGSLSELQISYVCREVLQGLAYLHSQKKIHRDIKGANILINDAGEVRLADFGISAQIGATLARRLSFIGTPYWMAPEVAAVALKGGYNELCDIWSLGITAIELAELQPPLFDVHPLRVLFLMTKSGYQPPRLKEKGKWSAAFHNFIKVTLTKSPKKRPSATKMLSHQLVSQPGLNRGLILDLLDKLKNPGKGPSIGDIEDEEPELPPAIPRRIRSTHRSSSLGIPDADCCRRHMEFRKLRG

| Compound | Ki [nM] |
| --- | --- |
| COc1cccc(F)c1-c1nccc(C(=O)Nc2cc(F)c3nn(C)cc3c2N2CCC3(CCNC3=O)C2)n1 (single isomer, unassigned; peak 1) [8, Peak 1] | < 100 |
| COc1cccc(F)c1-c1nccc(C(=O)Nc2cc(F)c3c(cnn3C)c2N2CCC3(CCNC3=O)C2)n1 (single isomer, unassigned; peak 2) [8, Peak 2] | < 100 |
| COc1cccc(F)c1-c1nccc(C(=O)Nc2cc(F)c3c(cnn3C)c2N2CCC[C@@H]2CN)n1 (single isomer, unassigned; peak 2) [10, Peak 2] | < 100 |
| COc1cccc(F)c1-c1nccc(C(=O)Nc2cc(F)c3c(cnn3C)c2-c2ccccc2C)n1 (single isomer, unassigned; peak 2) [14, Peak 2] | < 100 |
| COc1cccc(F)c1-c1nccc(C(=O)Nc2cc(F)c3nn(C)cc3c2N2CCOCC2)n1 [7, Peak 1] | < 100 |
| CCNC(=O)N1C[C@@H]2C[C@H]1CN2c1c(NC(=O)c2ccnc(-c3c(F)cccc3OC)n2)cc(F)c2c1cnn2C [Example 2, (1S,4S)—N-Ethyl-5-(7-fluoro-5-(2-(2-fluoro-6-methoxyphenyl)pyrimidine-4-carboxamido)-1-methyl-1H-indazol-4-yl)-2,5-diazabicyclo[2.2.1]heptane-2-carboxamide] | < 100 |
| COc1cccc(F)c1-c1nccc(C(=O)Nc2cc(F)c3c(cnn3C)c2N2CC(N)C2)n1 [Example 9, N-(4-(3-Aminoazetidin-1-yl)-7-fluoro-1-methyl-1H-indazol-5-yl)-2-(2-fluoro-6-methoxyphenyl)pyrimidine-4-carboxamide] | < 100 |
| COc1cccc(F)c1-c1nccc(C(=O)Nc2cc(F)c3c(cnn3C)c2N2CCCC2=O)n1 [Example 12, N-(7-Fluoro-1-methyl-4-(2-oxopyrrolidin-1-yl)-1H-indazol-5-yl)-2-(2-fluoro-6-methoxyphenyl)pyrimidine-4-carboxamide] | < 100 |
| COc1cccc(F)c1-c1nccc(C(=O)Nc2cc(F)c3c(cnn3C)c2-n2cccn2)n1 [Example 13, N-(7-Fluoro-1-methyl-4-(1H-pyrazol-1-yl)-1H-indazol-5-yl)-2-(2-fluoro-6-methoxyphenyl)pyrimidine-4-carboxamide] | < 100 |

Further lines, results first:

| Ki [nM] | Compound |
| --- | --- |
| < 100 | COc1cccc(F)c1-c1nccc(C(=O)Nc2cc(F)c3nn(C)cc3c2N2C[C@@H](N)C[C@H]2CO)n1 (single isomer, unassigned; peak 1) [3, Peak 1] |
| < 100 | COc1cccc(F)c1-c1nccc(C(=O)Nc2cc(F)c3nn(C)cc3c2-c2ccccc2C)n1 (single isomer, unassigned; peak 1) [14, Peak 1] |
| < 100 | COc1cccc(F)c1-c1nccc(C(=O)Nc2cc(C#N)c3nn(C)cc3c2N2CCC[C@@H](N)C2)n1 (single isomer, unassigned; peak 1) [15, Peak 1] |
| 500 to 5000 | CNC(=O)c1cc(NC(=O)c2ccnc(-c3c(F)cccc3OC)n2)c(N2CCC[C@@H](N)C2)c2cn(C)nc12 (single isomer, unassigned; peak 1) [16, Peak 1] |
| < 100 | COc1cccc(F)c1-c1nccc(C(=O)Nc2cc(C#N)c3c(cnn3C)c2N2CCC[C@@H](N)C2)n1 (single isomer, unassigned; peak 2) [15, Peak 2] |
| < 100 | CNC(=O)c1cc(NC(=O)c2ccnc(-c3c(F)cccc3OC)n2)c(N2CCC[C@@H](N)C2)c2cnn(C)c12 (single isomer, unassigned; peak 2) [16, Peak 2] |
| < 100 | COc1cccc(F)c1-c1nccc(C(=O)Nc2cc(F)c3c(cnn3C)c2N2CCOCC2)n1 [7, Peak 2] |
| < 100 | COc1cccc(F)c1-c1nccc(C(=O)Nc2cc(C)c3nn(C)cc3c2N2CCNCC2)n1 [18, Peak 1] |
| < 100 | COc1cccc(F)c1-c1nccc(C(=O)Nc2cc(C)c3c(cnn3C)c2N2CCNCC2)n1 [18, Peak 2] |
| < 100 | COc1cccc(F)c1-c1nccc(C(=O)Nc2cc(F)c3c(cnn3C)c2C2CCNC2)n1 (stereo not shown) [Example 11, N-(7-Fluoro-1-methyl-4-(pyrrolidin-3-yl)-1H-indazol-5-yl)-2-(2-fluoro-6-methoxyphenyl)pyrimidine-4-carboxamide] |
